The results in this text go back to patent publication EP4813980A1, “EP300/CBP REGULATOR, AND PREPARATION METHOD THEREFOR AND USE THEREOF” (Miracure Biotechnology Limited, priority 2023, dated 2025).

In test [1] the target is BRD4 (Homo sapiens, UniProt O60885). Put plainly: BRD4 counter-assay, tabulated with the CBP AlphaLISA test. It is filed as binding. The note with it: unit inferred.
Test [2] has as its system 22RV1 cells. Put plainly: Cell growth inhibition, CellTiter-Glo, 72 h. It is filed as cell-based. The note with it: Homo sapiens, 72 h culture, mean of N=2. A digest of the protocol:
(§1)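 Cells seeded at 5×10^3/well in RPMI-1640 with 10% FBS, compound added next day at 0.5% DMSO final, 72 h at 37°C. CellTiter-Glo luminescence read; % inhibition normalised to 0.5% DMSO (0%) and 1% Tween 20 (100%), plotted against concentration in nM; mean ± SEM, N=2.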
A general note: ATP-based viability assays read luminescence as a measure of living cells.

For test [3], the system named is MM1S cells. The test is described as follows: Cell growth inhibition, CellTiter-Glo, 72 h. The format is cell-based. The note with it: 72 h culture, mean of N=2. The procedure, abridged:
as §1

Test [4] concerns the target T1, CBP bromodomain (Homo sapiens, UniProt Q92793).
T1 construct: purchased
Put plainly: CBP AlphaLISA Assay Kit: binding of CBP bromodomain to acetylated histone substrate. The settings on record: 30 min incubation with CBP and biotinylated substrate, N=2, unit inferred. As for the experimental part:
The biochemical activity test of CBP preparations was detected using CBP AlphaLISA® Assay Kit. The detection principle is based on the binding of CBP bromodomain to acetylated histone substrate. The compounds were incubated with CBP and biotinylated substrate for 30 min, followed by the addition of acceptor beads for 15 min and donor beads for 15 min. Alpha counts were read, data were analyzed using Prism 7.0 and IC50 values were calculated.
(In Alpha technology, singlet oxygen from a donor bead excites a nearby acceptor bead.)

For test [5], the system named is vCap cells. Put plainly: Cell growth inhibition, CellTiter-Glo, 72 h. It is filed as cell-based. The note with it: Homo sapiens, 72 h culture, mean of N=2. A digest of the protocol: as §1
Test [6] relates to OPM-2 cells. The test is described as follows: Cell growth inhibition, CellTiter-Glo, 72 h. It is filed as cell-based. The note with it: Homo sapiens, 72 h culture, mean of N=2. The procedure, abridged: as §1

Molecules are shown by their SMILES.

T1 sequence (Q92793 1085-1192 limits assumed): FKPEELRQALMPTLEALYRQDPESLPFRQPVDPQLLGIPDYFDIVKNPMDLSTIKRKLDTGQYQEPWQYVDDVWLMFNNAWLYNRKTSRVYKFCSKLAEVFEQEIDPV

As usually defined, the IC50 is the concentration needed to halve the response being measured. Lower therefore signals inhibition by little substance. On to `CC(=O)N1Cc2cc(C3CCN(C(=O)/C=C/CN(C)C)CC3)cc(N3CCCc4cc(-c5cnn(C)c5)c(C(F)F)cc43)c2C1` [Compound 1357], for which the half-maximal inhibitory concentration (IC50) came to 5710 nM in test [1]; 5420 nM in test [2]; 58 nM in test [3] (Homo sapiens, MM1.S); 0.96 nM in test [4].

Regarding `CO[C@H]1CC[C@H](n2c([C@@H]3CCCC(=O)N3c3ccc(F)c(F)c3)nc3cc(-c4c(C)noc4C)ccc32)CC1` [CCS1477], the IC50 turned out to be 7250 nM in test [1]; 140 nM in test [5]; 2520 nM in test [2]; 220 nM in test [3]; 37 nM in test [6].

With `C=CS(=O)(=O)N1CCC(c2cc3c(c(N4CCCc5cc(-c6cnn(C)c6)c(C(F)F)cc54)c2)CN(C(=O)NC)C3)CC1` [Compound 1391, 4-(7-(difluoromethyl)-6-(1-methyl-1H-pyrazol-4-yl)-3,4-dihydroquinolin-1(2H)-yl)-N-methyl-6-(1-(vinylsulfonyl)piperidin-4-yl)isoindoline-2-carboxamide], the 50% inhibitory concentration (IC50) was determined as 191 nM in test [5]; 438 nM in test [2]; 117 nM in test [3] (Homo sapiens, MM1.S); 33 nM in test [6].

As for `C=CS(=O)(=O)N1CCC(n2nc(N3CCCc4cc(-c5cnn(C)c5)c(C5CC5)cc43)c3c2CCN(C(=O)NC)C3)CC1` [Compound 1378, 3-[7-cyclopropyl-6-(1-methylpyrazol-4-yl)-3,4-dihydro-2H-quinolin-1-yl]-1-(1-(vinylsulfonyl)piperidin-4-yl)-N-methyl-4H,6H,7H-pyrazolo[4,3-c]pyridine-5-carboxamide], the half-maximal inhibitory concentration (IC50) turned out to be 3 nM in test [5]; 10 nM in test [2]; 3 nM in test [3] (Homo sapiens, MM1.S); 2 nM in test [6].

With `CC(=O)N1Cc2cc([C@H]3CC[C@H](CN4Cc5cc6c(cc5C4)C(=O)N(C4CCC(=O)NC4=O)C6=O)CC3)cc(N3CCCc4cc(-c5cnn(C)c5)c(C(F)F)cc43)c2C1` (relative stereo) [Compound 2083, 6-(((1r,4r)-4-(2-acetyl-7-(7-(difluoromethyl)-6-(1-methyl-1H-pyrazol-4-yl)-3,4-dihydroquinolin-1(2H)-yl)isoindolin-5-yl)cyclohexyl)methyl)-2-(2,6-dioxopiperidin-3-yl)-6,7-dihydropyrrolo[3,4-f]isoindole-1,3(2H,5H)-dione], the IC50 in test [5] was 58 nM; in test [2] it was more than 10000 nM; in test [3] (Homo sapiens, MM1.S), 35 nM; in test [6] it was 13 nM.

In the case of `C=CS(=O)(=O)N[C@H]1CC[C@H](c2cc3c(c(N4CCCc5cc(-c6cnn(C)c6)c(C(F)F)cc54)c2)CN(C(C)=O)C3)CC1` [Compound 1343], the IC50 in test [1] turned out to be 7880 nM; in test [2], 205 nM; in test [3] (Homo sapiens, MM1.S) it was 39 nM; in test [6], 8 nM; in test [4], 7.5 nM.

As to `C=CS(=O)(=O)N1CCC(n2nc(N3CCCc4cc(-c5cnn(C)c5)c(C#N)cc43)c3c2CCN(C(=O)NC)C3)CC1` [Compound 1379, 3-[7-cyano-6-(1-methylpyrazol-4-yl)-3,4-dihydro-2H-quinolin-1-yl]-1-[1-(vinylsulfonyl)piperidin-4-yl]-N-methyl-4H,6H,7H-pyrazolo[4,3-c]pyridine-5-carboxamide], the IC50 was 8 nM in test [5]; 28 nM in test [2]; 5 nM in test [3] (Homo sapiens, MM1.S); 5 nM in test [6].

Regarding `C=CS(=O)(=O)N1CCC(c2cc3c(c(N4CCCc5cc(-c6cnn(C)c6)c(C(F)F)cc54)c2)CN(C(C)=O)C3)CC1` [Compound 1344], the concentration for half-maximal inhibition (IC50) turned out to be 7920 nM in test [1]; 33 nM in test [5]; 263 nM in test [2]; 68 nM in test [3] (Homo sapiens, MM1.S); 15 nM in test [6]; 7 nM in test [4].

For the compound `CC(=O)N1Cc2cc(C3CCN(CC4CCN(c5ccc6c(c5)n(C)c(=O)n6C5CCC(=O)NC5=O)CC4)CC3)cc(N3CCCc4cc(-c5cnn(C)c5)c(C(F)F)cc43)c2C1` (stereo not shown) [Compound 2068], the IC50 in test [5] was 0.07 nM; in test [2] it was 0.06 nM; in test [3] (Homo sapiens, MM1.S), 0.07 nM; in test [6], 0.04 nM.

For the compound `CNC(=O)N1CCc2c(c(N3CCCc4cc(-c5cnn(C)c5)c(C(F)F)cc43)nn2C2CCN(C(=O)CCl)CC2)C1` [Compound 1377, 1-(1-(2-chloroacetyl)piperidin-4-yl)-3-(7-(difluoromethyl)-6-(1-methyl-1H-pyrazol-4-yl)-3,4-dihydroquinolin-1(2H)-yl)-N-methyl-1,4,6,7-tetrahydro-5H-pyrazolo[4,3-c]pyridine-5-carboxamide], the IC50 stood at 0.5 nM in test [5]; 4 nM in test [2]; 0.3 nM in test [3] (Homo sapiens, MM1.S); 0.2 nM in test [6].

Regarding `C=CS(=O)(=O)N1CCC(c2cc3c(c(N4CCCc5cc(-c6cnn(C)c6)c(C(F)F)cc54)c2)CN(C(=O)NC)CC3)CC1` [Compound 1347], the IC50 in test [1] was more than 10000 nM; in test [2], 155 nM; in test [3] (Homo sapiens, MM1.S), 26 nM; in test [6] it was 2 nM; in test [4], 7.5 nM.

`C=CS(=O)(=O)N[C@H]1CC[C@@H](c2cc3c(c(N4CCCc5cc(-c6cnn(C)c6)c(C(F)F)cc54)c2)CN(C(C)=O)C3)CC1` [Compound 1345, N-((1s,4s)-4-(2-acetyl-7-(7-(difluoromethyl)-6-(1-methyl-1H-pyrazol-4-yl)-3,4-dihydroquinolin-1(2H)-yl)isoindolin-5-yl)cyclohexyl)ethenesulfonamide]: the IC50 was more than 10000 nM in test [1]; 12 nM in test [5]; 48 nM in test [2]; 15 nM in test [3] (Homo sapiens, MM1.S); 4 nM in test [6]; 9.3 nM in test [4].

Take `CC(=O)N1Cc2cc(C3CCN(CC4CCN(c5ccc6c(c5)C(=O)N(C5CCC(=O)NC5=O)C6=O)CC4)CC3)cc(N3CCCc4cc(-c5cnn(C)c5)c(C(F)F)cc43)c2C1` (stereo not shown) [Compound 2085]: the IC50 in test [5] worked out at 2 nM; in test [2] it was 4 nM; in test [3] (Homo sapiens, MM1.S), 2 nM; in test [6], 2 nM.

`CC(=O)N1Cc2cc(C3CCN(c4cccc5c4CN(C4CCC(=O)NC4=O)C5=O)CC3)cc(N3CCCc4cc(-c5cnn(C)c5)c(C(F)F)cc43)c2C1` (stereo not shown) [Compound 2080, 3-[4-(4-{2-acetyl-7-[7-(difluoromethyl)-6-(1-methylpyrazol-4-yl)-3,4-dihydro-2H-quinolin-1-yl]-1,3-dihydroisoindol-5-yl}piperidin-1-yl)-1-oxo-3H-isoindol-2-yl]piperidine-2,6-dione]: the IC50 in test [5] came out at 1.17 nM; in test [2] it was 3.97 nM; in test [3] (Homo sapiens, MM1.S), 1.16 nM; in test [6] it was 0.52 nM.

On to `CNC(=O)N1CCc2c(c(N3CCCc4cc(-c5cnn(C)c5)c(C(F)F)cc43)nn2C2CCOCC2)C1` [GNE-781], for which the IC50 worked out at 2150 nM in test [5]; 4240 nM in test [2]; 104 nM in test [3] (Homo sapiens, MM1.S); 8 nM in test [6].

For `CNC(=O)N1CCc2c(c(N3CCCc4cc(-c5cnn(C)c5)c(C(F)F)cc43)nn2[C@H]2CC[C@H](N3C(=O)C=CC3=O)CC2)C1` [Compound 1383, 3-(7-(difluoromethyl)-6-(1-methyl-1H-pyrazol-4-yl)-3,4-dihydroquinolin-1(2H)-yl)-1-((1r,4r)-4-(2,5-dioxo-2,5-dihydro-1H-pyrrol-1-yl)cyclohexyl)-N-methyl-1,4,6,7-tetrahydro-5H-pyrazolo[4,3-c]pyridine-5-carboxamide], the IC50 in test [5] was 108 nM; in test [2], 496 nM; in test [3] (Homo sapiens, MM1.S) it was 122 nM; in test [6] it was 63 nM.

In the case of `C=CC(=O)N[C@H]1CC[C@@H](c2cc3c(c(N4CCCc5cc(-c6cnn(C)c6)c(C(F)F)cc54)c2)CN(C(C)=O)C3)CC1` [Compound 1339], the IC50 was 7430 nM in test [1]; 2500 nM in test [2]; 48 nM in test [3] (Homo sapiens, MM1.S); 8 nM in test [6]; 4.7 nM in test [4].
